The nature of data set [1]: Lipophilicity, logD of compound at pH 7.5 by reversed-phase HPLC analysis. It counts as physicochemical. Conditions: buffer.
A short description of data set [2]: Metabolic stability in Han Wistar rat liver microsomes assessed as intrinsic clearance at 1 uM in presence of NADP and measured upto 60 mins by LC-MS/MS analysis. It counts as ADME, Microsome. Conditions: read-out: CLH (converted). (In general: Microsomes from liver hold many membrane-bound enzymes, among them those of drug oxidation.)
Data set [3] can be described thus: Metabolic stability in Han Wistar rat hepatocytes assessed as intrinsic clearance at 1 uM in presence of NADP and measured upto 90 mins by LC-MS/MS analysis. The class given is ADME, cell-based, Hepatocyte. The following applies: read-out: CLH (converted).
Data set [4] is described as follows: Metabolic stability in Han Wistar rat liver microsomes assessed as maximum bioavailability at 1 uM in presence of NADP and measured upto 60 mins by LC-MS/MS analysis. It counts as ADME, Microsome. Conditions: read-out: Fmax.
A short description of data set [5]: Metabolic stability in Han Wistar rat hepatocytes assessed as maximum bioavailability at 1 uM in presence of NADP and measured upto 90 mins by LC-MS/MS analysis. Conditions: read-out: Fmax. The class given is ADME, Hepatocyte.
The nature of data set [6]: Aqueous solubility of compound at pH 6.5 and measured after 24 hrs by HPLC-MS/MS analysis. The class given is physicochemical. The following applies: buffer.
Data set [7] is described as follows: Stability of compound at pH 10 at 5 uM and measured upto 24 hrs by HPLC-UV analysis. The class given is physicochemical. Conditions: buffer, pH 10, 24 h.
A short description of data set [8]: Stability of compound at pH 7 at 5 uM and measured upto 24 hrs by HPLC-UV analysis. The class given is physicochemical. The following applies: buffer, pH 7, 24 h.
Data set [9] is described as follows: Stability of compound at pH 1 at 5 uM and measured upto 24 hrs by HPLC-UV analysis. It counts as physicochemical. The following applies: buffer, pH 1, 24 h.
Data set [10] can be described thus: Metabolic stability in human liver microsomes assessed as maximum bioavailability at 1 uM in presence of NADP and measured upto 60 mins by LC-MS/MS analysis. The class given is ADME, Microsome. Conditions: read-out: Fmax.
Data set [11] can be described thus: Acid dissociation constant, pKa of the compound. It counts as physicochemical.

Values after ≈ are worked out from the molar mass of the structure shown.

The values that follow come from ChEMBL document CHEMBL5241108 (J Med Chem, 2021).

One may read the chromatographic logD as lipophilicity estimated from chromatographic retention. Usually solubility stands for the concentration that dissolves in the medium under given conditions. A lower solubility goes with little dissolved substance. The term pKa denotes the negative logarithm of the acid dissociation constant. Lower therefore signals a stronger acid or weaker base.

In the case of `CC[C@@H](Nc1c(C#N)c(-c2ccc(-c3ccccc3COC)cc2)nc2cnccc12)C(N)=O`, the chromatographic logD in [1] is 2.6.

Regarding `CC[C@@H](Nc1c(C#N)c(-c2ccc(-c3ncccc3C)cc2)nc2cnccc12)C(N)=O`, the chromatographic logD in data set [1] amounted to 2. Compound `CC[C@@H](Nc1c(C#N)c(-c2ccc(-c3cccc(Cl)c3)cc2)nc2cnccc12)C(N)=O` returned a chromatographic logD in data set [1] of 3.1. On the same count and under the same terms, as for `CCOc1ccccc1-c1ccc(-c2nc3cnccc3c(N[C@H](CC)C(=O)N(C)C)c2C#N)cc1`, the figure is 3.7; as for `CC[C@@H](Nc1c(C#N)c(-c2ccc(-c3cccnc3C)cc2)nc2cnccc12)C(N)=O`, 1.9. Still for that read-out and setting: with `CC[C@@H](Nc1c(C#N)c(-c2ccc(Br)cc2)nc2cnccc12)C(=O)O` the figure was 1.6. Compound `CC[C@@H](Nc1c(C#N)c(-c2ccc(-c3cccc(C)c3F)cc2)nc2cnccc12)C(=O)O` [BAY-091] had a chromatographic logD in [1] of 2.1. In addition, the CLint scaled at 1 µM in data set [2] was 46.7 mL/min/kg; in data set [3], 38.3 mL/min/kg. The Fh at 1 h, 1 µM stood at 33% in data set [4] and 100% in [10]. Also, the Fh at 1.5 h, 1 µM in data set [5] came out at 44%. The solubility at 24 h in [6] is above 1000 µg/mL. The Stability result in data set [7], in data set [8] and in data set [9] was “Stable” each time. Consider `CC[C@@H](Nc1c(C#N)c(-c2ccc(-c3ccc(F)cc3)cc2)nc2cnccc12)C(N)=O`, for which the chromatographic logD in data set [1] was 2.7.

For `CC(Nc1c(C#N)c(-c2ccc(Br)cc2)nc2cnccc12)C(N)=O` (racemic), the chromatographic logD in [1] worked out at 2.1. In data set [1], `CCCCC(Nc1c(C#N)c(-c2ccc(-c3ccccc3OCC)cc2)nc2cnccc12)C(N)=O` (racemic) displayed a chromatographic logD of 3.6. Turning to `CCOc1ccccc1-c1ccc(-c2nc3cnccc3c(NC(C)C(=O)O)c2C#N)cc1` (racemic), in data set [1], the chromatographic logD came to 2.1. In [11], the pKa turned out to be 3.26. Regarding `CC[C@@H](Nc1c(C#N)c(-c2ccc(-c3ccccc3NC)cc2)nc2cnccc12)C(N)=O`, the chromatographic logD in data set [1] turned out to be 2.5. `CC[C@@H](Nc1c(C#N)c(-c2ccc(-c3cccc(Cl)c3OC)cc2)nc2cnccc12)C(N)=O` had a chromatographic logD in [1] of 3.1. Compound `CC[C@@H](Nc1c(C#N)c(-c2ccc(-c3ccccc3C(C)C)cc2)nc2cnccc12)C(N)=O` came in with a chromatographic logD in [1] of 3.5.

In data set [1], `CCOc1ccccc1-c1ccc(-c2nc3cnccc3c(N[C@H](CC)C(=O)NCC(F)F)c2C#N)cc1` displayed a chromatographic logD of 3.6. The chromatographic logD values of the last two compounds are within 0.2 log units of each other. On the same count and under the same terms, as for `CCOc1ccccc1-c1ccc(-c2nc3cnccc3c(N[C@H](CC)C(=O)NS(C)(=O)=O)c2C#N)cc1`, the figure is 2.2; as for `CCOc1ccccc1-c1ccc(-c2nc3cnccc3c(C[C@H](C)C(N)=O)c2C#N)cc1`, 3.

`CC[C@@H](Nc1c(C#N)c(-c2ccc(-c3ccccc3C(F)(F)F)cc2)nc2cnccc12)C(N)=O`: the chromatographic logD in data set [1] amounted to 3.1. The same measure, in the same setting: with `CCOc1ccccc1-c1ccc(-c2nc3cnccc3c(N[C@@H]3CCNC3=O)c2C#N)cc1` the figure was 2.7; with `CC[C@@H](Nc1c(C#N)c(-c2ccc(-c3ccccc3N(C)C)cc2)nc2cnccc12)C(N)=O`, 3.2; with `CC[C@@H](Nc1c(C#N)c(-c2ccc(-c3cnccc3C)cc2)nc2cnccc12)C(N)=O`, 2.

As for `CC[C@@H](Nc1c(C#N)c(-c2ccc(-c3cccc(CO)c3)cc2)nc2cnccc12)C(N)=O`, the chromatographic logD in data set [1] amounted to 2.

In turn, `CCOc1ccccc1-c1ccc(-c2nc3cnccc3c(N[C@H](CC)C(=O)O)c2C#N)cc1` returned a chromatographic logD in data set [1] of 2.1. In addition, the CLint scaled at 1 µM in data set [2] and in [3] was 8.33 mL/min/kg throughout. Besides, the Fh at 1 h, 1 µM in data set [4] came to 87%. Besides, the Fh at 1.5 h, 1 µM in [5] was found to be 87%. Moreover, the solubility at 24 h in [6] is 112 µg/mL (≈ 248 µM). The compound `CC[C@@H](Nc1c(C#N)c(-c2ccc(-c3ccccc3Cl)cc2)nc2cnccc12)C(N)=O` had a chromatographic logD in data set [1] of 2.9.

`CC[C@@H](Nc1c(C#N)c(-c2ccc(-c3ccccc3C)cc2)nc2cnccc12)C(N)=O` yielded a chromatographic logD in [1] of 3. Consider `CC[C@@H](Nc1c(C#N)c(-c2ccc(-c3cccc(C)c3)cc2)nc2cnccc12)C(N)=O`, for which the chromatographic logD in [1] was 3.

Turning to `CC[C@@H](Nc1c(C#N)c(-c2ccc(-c3cccc(Cl)c3F)cc2)nc2cnccc12)C(=O)O`, the chromatographic logD in data set [1] is 2.2.

Compound `CC[C@@H](Nc1c(C#N)c(-c2ccc(-c3ccccc3CO)cc2)nc2cnccc12)C(N)=O` registered a chromatographic logD in data set [1] of 2.1.

For `CCOc1ccccc1-c1ccc(-c2nc3cnccc3c(N)c2C#N)cc1`, the chromatographic logD in [1] was 3.

`CCOc1ccccc1-c1ccc(-c2nc3cnccc3c(NC(C(N)=O)C3CC3)c2C#N)cc1` (racemic) gave a chromatographic logD in data set [1] of 3. The same measure, in the same setting: as for `CCOc1ccccc1-c1ccc(-c2nc3cnccc3c(NC(CC)CNS(=O)(=O)C3CC3)c2C#N)cc1` (racemic), the figure is 3.6; as for `CCOc1ccccc1-c1ccc(-c2nc3cnccc3c(NC(COC)C(N)=O)c2C#N)cc1` (racemic), 2.8. On the same count and under the same terms, as for `CCOc1ccccc1-c1ccc(-c2nc3cnccc3cc2C#N)cc1`, the figure is 3.8; as for `CCOc1ccccc1-c1ccc(-c2nc(NC(C)C(=O)O)c3ccncc3n2)cc1` (racemic), 2.1; as for `CCOc1ccccc1-c1ccc(-c2nc3cnccc3c(N[C@H](CC(C)C)C(N)=O)c2C#N)cc1`, 3.4.

For `CC[C@@H](Nc1c(C#N)c(-c2ccc(-c3ccncc3C)cc2)nc2cnccc12)C(N)=O`, the chromatographic logD in data set [1] was 2. Same read-out and setting: with `CC(C)(Nc1c(C#N)c(-c2ccc(Br)cc2)nc2cnccc12)C(N)=O` the figure was 2.1.

`CCOc1ccccc1-c1ccc(-c2nc3cnccc3c(N[C@H](CC)C(=O)NS(=O)(=O)C3CC3)c2C#N)cc1`: the chromatographic logD in [1] is 2.3.
